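All cell lines were grown in 96-well plates and treated with compound for 48 hours. At the GI50, growth is halved.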 Calls of active or inactive are those of the source. Rule as the data show it: active = GI50 up to about 1.1 µM and inactive = higher.
Tests used:
Assay in all cases: NCI tumour cell line growth inhibition, 48 h
[1] = tested on: MCF7
[2] = tested on: 786-0
[3] = tested on: PC-3
[4] = tested on: UACC-257
[5] = tested on: SK-MEL-2
[6] = tested on: CAKI-1
[7] = tested on: SK-MEL-28
[8] = tested on: KM12
[9] = tested on: OVCAR-3
[10] = tested on: BT-549
[11] = tested on: MDA-MB-435
[12] = tested on: MDA-N
[13] = tested on: U-251
[14] = tested on: SR
[15] = tested on: HL-60
[16] = tested on: DU-145
[17] = tested on: SF-268
[18] = tested on: M14
[19] = tested on: MOLT-4
[20] = tested on: HCT-116
[21] = tested on: RPMI-8226
[22] = tested on: IGROV-1
[23] = tested on: TK-10
[24] = tested on: SNB-75
[25] = tested on: MDA-MB-231
[26] = tested on: SF-539
[27] = tested on: HT-29
[28] = tested on: OVCAR-5
[29] = tested on: SK-MEL-5
[30] = tested on: Malme-3M
[31] = tested on: NCI-H522
[32] = tested on: EKVX
[33] = tested on: COLO 205
[34] = tested on: UO-31
[35] = tested on: SW-620
[36] = tested on: OVCAR-4
[37] = tested on: SN12C
[38] = tested on: NCI-H226
[39] = tested on: CCRF-CEM
[40] = tested on: UACC-62
[41] = tested on: HOP-62
[42] = tested on: SF-295
[43] = tested on: SK-OV-3
[44] = tested on: ACHN
[45] = tested on: NCI/ADR-RES
[46] = tested on: T47D
[47] = tested on: K562
[48] = tested on: SNB-19
[49] = tested on: OVCAR-8
[50] = tested on: NCI-H460
[51] = tested on: NCI-H23
[52] = tested on: A498
[53] = tested on: RXF 393
[54] = tested on: A549
[55] = tested on: Hs-578T
[56] = tested on: LOX IMVI
[57] = tested on: HOP-92
[58] = tested on: HCT-15

For `Cn1c(N)c(/N=N/c2ccc(S(N)(=O)=O)cc2)c(=O)n(C)c1=O`, the GI50 [1] was > 100 µM (inactive), the GI50 [2] was 53.1 µM (inactive) and the GI50 [3] was > 100 µM (inactive). For the same compound, the GI50 [4] was > 100 µM (inactive), the GI50 [5] was > 100 µM (inactive) and the GI50 [6] was > 100 µM (inactive). The GI50 [7] was > 100 µM (inactive), the GI50 [8] was > 100 µM (inactive) and the GI50 [9] was > 100 µM (inactive). For the same compound, the GI50 [10] was > 100 µM (inactive), the GI50 [11] was > 100 µM (inactive) and the GI50 [12] was > 100 µM (inactive). The GI50 [13] was 45.9 µM (inactive), the GI50 [14] was > 100 µM (inactive) and the GI50 [15] was > 100 µM (inactive). For the same compound, the GI50 [16] was > 100 µM (inactive), the GI50 [17] was 88.1 µM (inactive) and the GI50 [18] was > 100 µM (inactive). The GI50 [19] was > 100 µM (inactive), the GI50 [20] was > 100 µM (inactive) and the GI50 [21] was > 100 µM (inactive). The GI50 [22] was > 100 µM (inactive), the GI50 [23] was > 100 µM (inactive) and the GI50 [24] was 22.6 µM (inactive). The GI50 [25] was > 100 µM (inactive), the GI50 [26] was > 100 µM (inactive) and the GI50 [27] was > 100 µM (inactive). The GI50 [28] was > 100 µM (inactive), the GI50 [29] was > 100 µM (inactive) and the GI50 [30] was > 100 µM (inactive). The GI50 [31] was 80.9 µM (inactive), the GI50 [32] was > 100 µM (inactive) and the GI50 [33] was > 100 µM (inactive). The GI50 [34] was > 100 µM (inactive), the GI50 [35] was > 100 µM (inactive) and the GI50 [36] was > 100 µM (inactive). For the same compound, the GI50 [37] was > 100 µM (inactive), the GI50 [38] was > 100 µM (inactive) and the GI50 [39] was > 100 µM (inactive). For the same compound, the GI50 [40] was 91.8 µM (inactive), the GI50 [41] was 40.9 µM (inactive) and the GI50 [42] was > 100 µM (inactive). For the same compound, the GI50 [43] was 79.8 µM (inactive), the GI50 [44] was 96.8 µM (inactive) and the GI50 [45] was > 100 µM (inactive). For the same compound, the GI50 [46] was > 100 µM (inactive), the GI50 [47] was > 100 µM (inactive) and the GI50 [48] was 81.8 µM (inactive). For the same compound, the GI50 [49] was > 100 µM (inactive), the GI50 [50] was > 100 µM (inactive) and the GI50 [51] was > 100 µM (inactive). For the same compound, the GI50 [52] was > 100 µM (inactive), the GI50 [53] was > 100 µM (inactive) and the GI50 [54] was > 100 µM (inactive). The GI50 [55] was 22.3 µM (inactive), the GI50 [56] was > 100 µM (inactive) and the GI50 [57] was > 100 µM (inactive). The GI50 [58] was over 100 µM.

In the case of `CCOC(=O)c1nc2ccccc2nc1Oc1cc(OC)cc(OC)c1`, the GI50 [1] is reported as > 100 µM (inactive), the GI50 [2] is reported as 35.5 µM (inactive) and the GI50 [3] is reported as > 100 µM (inactive). The GI50 [4] was > 100 µM (inactive), the GI50 [5] was > 100 µM (inactive) and the GI50 [7] was > 100 µM (inactive). For the same compound, the GI50 [8] was 76.9 µM (inactive), the GI50 [9] was > 100 µM (inactive) and the GI50 [10] was > 100 µM (inactive). The GI50 [11] was > 100 µM (inactive), the GI50 [12] was > 100 µM (inactive) and the GI50 [13] was 78.3 µM (inactive). The GI50 [14] was > 100 µM (inactive), the GI50 [15] was 8.41 µM (inactive) and the GI50 [16] was > 100 µM (inactive). The GI50 [17] was 76.7 µM (inactive), the GI50 [18] was > 100 µM (inactive) and the GI50 [19] was > 100 µM (inactive). The GI50 [20] was > 100 µM (inactive), the GI50 [21] was > 100 µM (inactive) and the GI50 [22] was > 100 µM (inactive). The GI50 [23] was > 100 µM (inactive), the GI50 [25] was > 100 µM (inactive) and the GI50 [26] was 61.7 µM (inactive). For the same compound, the GI50 [27] was > 100 µM (inactive), the GI50 [28] was > 100 µM (inactive) and the GI50 [29] was > 100 µM (inactive). The GI50 [30] was > 100 µM (inactive), the GI50 [31] was 46.7 µM (inactive) and the GI50 [32] was 60.1 µM (inactive). For the same compound, the GI50 [33] was 81.5 µM (inactive), the GI50 [34] was > 100 µM (inactive) and the GI50 [35] was > 100 µM (inactive). The GI50 [36] was 8.49 µM (inactive), the GI50 [37] was > 100 µM (inactive) and the GI50 [38] was > 100 µM (inactive). For the same compound, the GI50 [39] was > 100 µM (inactive), the GI50 [40] was > 100 µM (inactive) and the GI50 [41] was 69.7 µM (inactive). For the same compound, the GI50 [42] was > 100 µM (inactive), the GI50 [43] was > 100 µM (inactive) and the GI50 [44] was > 100 µM (inactive). The GI50 [45] was > 100 µM (inactive), the GI50 [46] was > 100 µM (inactive) and the GI50 [47] was > 100 µM (inactive). For the same compound, the GI50 [48] was > 100 µM (inactive), the GI50 [49] was > 100 µM (inactive) and the GI50 [50] was 39.5 µM (inactive). For the same compound, the GI50 [52] was > 100 µM (inactive), the GI50 [53] was 53.5 µM (inactive) and the GI50 [54] was > 100 µM (inactive). For the same compound, the GI50 [55] was 27.9 µM (inactive), the GI50 [56] was > 100 µM (inactive) and the GI50 [57] was 6.81 µM (inactive). For the same compound, the GI50 [58] was over 100 µM.

`CC(=O)c1nc2ccccc2n1CC(=O)c1ccc(Cl)cc1` was tested, and the GI50 [1] was 3.73 µM (inactive), the GI50 [2] was 3.13 µM (inactive) and the GI50 [3] was 5.45 µM (inactive). For the same compound, the GI50 [4] was 5.68 µM (inactive), the GI50 [5] was 14.7 µM (inactive) and the GI50 [6] was 5.25 µM (inactive). For the same compound, the GI50 [7] was 8.83 µM (inactive), the GI50 [8] was 3.02 µM (inactive) and the GI50 [9] was 4.37 µM (inactive). For the same compound, the GI50 [10] was 3.55 µM (inactive), the GI50 [11] was 2.09 µM (inactive) and the GI50 [12] was 1.93 µM (inactive). For the same compound, the GI50 [13] was 2.99 µM (inactive), the GI50 [14] was 4.84 µM (inactive) and the GI50 [15] was 1.79 µM (inactive). For the same compound, the GI50 [16] was 13.4 µM (inactive), the GI50 [17] was 3.94 µM (inactive) and the GI50 [18] was 2.92 µM (inactive). The GI50 [19] was 4.05 µM (inactive), the GI50 [20] was 2.01 µM (inactive) and the GI50 [21] was 3.65 µM (inactive). The GI50 [22] was 1.39 µM (inactive), the GI50 [23] was 61.2 µM (inactive) and the GI50 [25] was 2.79 µM (inactive). For the same compound, the GI50 [26] was 7.36 µM (inactive), the GI50 [27] was 12.1 µM (inactive) and the GI50 [30] was 3.19 µM (inactive). The GI50 [31] was 2.79 µM (inactive), the GI50 [32] was 38.2 µM (inactive) and the GI50 [33] was 20.9 µM (inactive). For the same compound, the GI50 [34] was 9.25 µM (inactive), the GI50 [35] was 2.67 µM (inactive) and the GI50 [36] was 5.26 µM (inactive). The GI50 [37] was 5.69 µM (inactive), the GI50 [38] was 12 µM (inactive) and the GI50 [39] was 4.09 µM (inactive). For the same compound, the GI50 [40] was 2.02 µM (inactive), the GI50 [41] was 5.85 µM (inactive) and the GI50 [42] was 13.4 µM (inactive). The GI50 [43] was 28.1 µM (inactive), the GI50 [45] was 2.94 µM (inactive) and the GI50 [46] was 2.45 µM (inactive). The GI50 [47] was 1.52 µM (inactive), the GI50 [48] was 7.4 µM (inactive) and the GI50 [49] was 2.4 µM (inactive). For the same compound, the GI50 [50] was 2.45 µM (inactive), the GI50 [51] was 7.64 µM (inactive) and the GI50 [52] was 54.3 µM (inactive). The GI50 [53] was 17.6 µM (inactive), the GI50 [54] was 3.17 µM (inactive) and the GI50 [55] was 17.2 µM (inactive). For the same compound, the GI50 [56] was 0.925 µM (active), the GI50 [57] was 1.03 µM (active) and the GI50 [58] was 5.2 µM.

Source: ChEMBL document CHEMBL1201862, “PubChem BioAssay data set” (2004)
